From patent US20020151491A1, “Composition and method for treating the over-production of mucin in diseases such as otitis media using an inhibitor of MUC5AC” (priority 2000, published 2002)

System: MUC5AC transcription
Assay: MUC5AC promoter-luciferase reporter assay (pMUC5AC3.7luc) in human epithelial cells
Assay type: cell-based
Method: The luciferase assay was performed as follows: expression plasmids fp38α(AF) and fp38β(AF) were previously described in Shuto, et al. (2001) Proc. Natl, Acad. Sci. U.S.A. 98, pages 8774-9. The expression plasmids p110, p85α, Akt KD, and Akt WT were provided by D. Stokoe (University of California, San Francisco). The reporter construct MUC5AC contained 3.7-kb 5′-flanking region of the human MUC5AC mucin gene in a luciferase reporter vector pGL3 (Li, et al. 1998, J. Biol. Chem. 273, 68126820). Transient transfections of cells were performed in triplicate with Trans IT-LT1 (Panvera, Madison, WT) following the manufacturer's instructions. Forty-two hours after transfection, the cells were treated with NTHi for 4 h and then harvested for use in the luciferase assay. For experiments with inhibitors, HM3 cells stably transfected with MUC5AC-luciferase plasmid were pretreated with inhibitors for 1-2 h, then treated with NTHi for 4 h and harvested for luciferase assays. Luciferase assays were performed on a Monolight 3010 luminometer for 15 s (Analytical Luminescence, San Diego, Calif.). The NTHi-dependent fold induction was calculated relative to the luciferase light units obtained in the absence of NTHi treatment. The normalized luciferase activity was thus expressed as relative luciferase activity (fold induction).

| Compound | effect on MUC5AC transcription induced by LPS from S. typhimurium (LPS pretreated with various concentrations of polymyxin B 10 min at 4° C., HM3 pMUC5AC3.7luc cells, 4 h) | effect on MUC5AC transcription induced by NTHi soluble cytoplasmic fraction (SCF pretreated with various concentrations of polymyxin B for 10 min, HM3 pMUC5AC3.7luc cells) | effect on NTHi-induced MUC5AC transcription (luciferase activity) (HM3 cells stably transfected with pMUC5AC3.7luc, pretreated with inhibitor 1-2 h, then NTHi SCF 4 h) | effect on NTHi-induced MUC5AC transcription in cells already pretreated with wortmannin (HM3 cells stably transfected with pMUC5AC3.7luc, wortmannin pretreatment first) |
| --- | --- | --- | --- | --- |
| Polymyxin B | significantly reduced MUC5AC transcription | no significant reduction in NTHi-induced MUC5AC transcription | – | – |
| C[S+]([O-])c1ccc(-c2nc(-c3ccncc3)c(-c3ccc(F)cc3)[nH]2)cc1 (stereo not shown) [SB203580] | – | – | inhibited MUC5AC induction in response to NTHi cytoplasmic proteins in a dose-dependent manner | still capable of inhibiting NTHi-induced MUC5AC transcription |
